Data published in ChEMBL document CHEMBL1201861, “Genomics of Drug Sensitity in Cancer screening data, Wellcome Trust Sanger Institute”.

Columns and labels:
Type in all cases: functional, cell-based
IGR-1 = assay: cells; details: Homo sapiens;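 further: growth inhibition of human IGR-1 cells, read out with a cell viability assay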
Description: SANGER: Inhibition of human IGR-1 cell growth in a cell viability assay.

NCI-H810 = assay: cells; details: Homo sapiens;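 further: IC50 reflects inhibition of cancer cell line growth, read out with a cell viability assay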
Description: SANGER: Inhibition of human NCI-H810 cell growth in a cell viability assay.

786-0 = assay: cells; details: Homo sapiens
Description: SANGER: Inhibition of human 786-0 cell growth in a cell viability assay.

D-392MG = assay: cells; details: Homo sapiens
D-566MG = assay: cells; details: Homo sapiens
DMS-114 = assay: cells; details: Homo sapiens
EM-2 = assay: cells; details: Homo sapiens;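 further: growth inhibition of EM-2 cells, read out with a cell viability assay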
Description: SANGER: Inhibition of human EM-2 cell growth in a cell viability assay.

ES7 = assay: cells; details: Homo sapiens;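 further: growth inhibition of cultured human ES7 cells, read out as cell viability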
Description: SANGER: Inhibition of human ES7 cell growth in a cell viability assay.

K5 = assay: cells; details: Homo sapiens
Description: SANGER: Inhibition of human K5 cell growth in a cell viability assay.

L-363 = assay: cells; details: Homo sapiens
Description: SANGER: Inhibition of human L-363 cell growth in a cell viability assay.

LB1047-RCC = assay: cells; details: Homo sapiens
Description: SANGER: Inhibition of human LB1047-RCC cell growth in a cell viability assay.

MEG-01 = assay: cells; details: Homo sapiens;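 further: growth inhibition of MEG-01 cells, read out by a cell viability assay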
Description: SANGER: Inhibition of human MEG-01 cell growth in a cell viability assay.

MHH-NB-11 = assay: cells; details: Homo sapiens;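 further: growth inhibition of human MHH-NB-11 cells, read out by a cell viability assay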
Description: SANGER: Inhibition of human MHH-NB-11 cell growth in a cell viability assay.

NCI-H1581 = assay: cells; details: Homo sapiens;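 further: cell growth inhibition read out by a viability assay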
Description: SANGER: Inhibition of human NCI-H1581 cell growth in a cell viability assay.

NCI-H446 = assay: cells; details: Homo sapiens;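 further: growth inhibition of NCI-H446 cells determined by a cell viability assay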
Description: SANGER: Inhibition of human NCI-H446 cell growth in a cell viability assay.

A2780 = assay: cells; details: Homo sapiens;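 further: growth inhibition of A2780 cells, read out with a cell viability assay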
Description: SANGER: Inhibition of human A2780 cell growth in a cell viability assay.

A-427 = assay: cells; details: Homo sapiens;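 further: growth inhibition of human A-427 cells, read out by a cell viability assay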
Description: SANGER: Inhibition of human A427 cell growth in a cell viability assay.

AGS = assay: cells; details: Homo sapiens;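 further: growth inhibition of AGS cells, determined with a cell viability assay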
Description: SANGER: Inhibition of human AGS cell growth in a cell viability assay.

CHP-212 = assay: cells; details: Homo sapiens
Description: SANGER: Inhibition of human CHP-212 cell growth in a cell viability assay.

KU812 cell line = assay: cells; details: Homo sapiens;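 further: growth inhibition of KU812 cells, read out with a cell viability assay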
Description: SANGER: Inhibition of human KU812 cell growth in a cell viability assay.

LXF-289 cell line = assay: cells; details: Homo sapiens
Description: SANGER: Inhibition of human LXF-289 cell growth in a cell viability assay.

A253 cell line = assay: cells; details: Homo sapiens;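 further: growth inhibition of A253 cells, read out with a cell viability assay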
Description: SANGER: Inhibition of human A253 cell growth in a cell viability assay.

BC1 cell line = assay: SANGER: Inhibition of human BC-1 cell growth in a cell viability assay.
COLO-824 = assay: cells; details: Homo sapiens
Description: SANGER: Inhibition of human COLO-824 cell growth in a cell viability assay.

COR-L88 = assay: cells; details: Homo sapiens;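 further: growth inhibition of COR-L88 cells, read out with a cell viability assay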
Description: SANGER: Inhibition of human COR-L88 cell growth in a cell viability assay.

CaR-1 = assay: cells; details: Homo sapiens;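 further: growth inhibition of human CaR-1 cancer cells, read out with a cell viability assay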
Description: SANGER: Inhibition of human CaR-1 cell growth in a cell viability assay.

DMS-273 = assay: cells; details: Homo sapiens
Description: SANGER: Inhibition of human DMS-273 cell growth in a cell viability assay.

DSH1 = assay: cells; details: Homo sapiens;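 further: growth inhibition of human DSH1 cells, measured with a cell viability readout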
Description: SANGER: Inhibition of human DSH1 cell growth in a cell viability assay.

EW-18 = assay: cells; details: Homo sapiens;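 further: growth inhibition of EW-18 cells, read out by a cell viability assay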
Description: SANGER: Inhibition of human EW-18 cell growth in a cell viability assay.

GCT = assay: cells; details: Homo sapiens;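 further: GCT cell line proliferation inhibition, read out with a cell viability assay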
Description: SANGER: Inhibition of human GCT cell growth in a cell viability assay.

GI-1 = assay: cells; details: Homo sapiens;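 further: growth inhibition of human GI-1 cells, measured with a cell viability readout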
Description: SANGER: Inhibition of human GI-1 cell growth in a cell viability assay.

H-EMC-SS = assay: cells; details: Homo sapiens
Description: SANGER: Inhibition of human H-EMC-SS cell growth in a cell viability assay.

HCC1569 = assay: cells; details: Homo sapiens;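 further: growth inhibition of human HCC1569 cells, read out with a cell viability assay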
Description: SANGER: Inhibition of human HCC1569 cell growth in a cell viability assay.

HEL = assay: cells; details: Homo sapiens;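 further: growth inhibition of HEL cells, read out with a cell viability assay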
Description: SANGER: Inhibition of human HEL cell growth in a cell viability assay.

HN = assay: cells; details: Homo sapiens
Description: SANGER: Inhibition of human HN cell growth in a cell viability assay.

HSC-2 = assay: cells; details: Homo sapiens;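 further: growth inhibition of human HSC-2 cells, read out by a cell viability assay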
Description: SANGER: Inhibition of human HSC-2 cell growth in a cell viability assay.

HT55 = assay: cells; details: Homo sapiens;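 further: cell viability readout measuring growth inhibition of human HT55 cells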
Description: SANGER: Inhibition of human HT55 cell growth in a cell viability assay.

HTC-C3 = assay: cells; details: Homo sapiens;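 further: inhibition of cell growth, read out with a cell viability assay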
Description: SANGER: Inhibition of human HTC-C3 cell growth in a cell viability assay.

Huh-7 = assay: cells; details: Homo sapiens;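 further: HuH-7 cell growth inhibition, read out with a cell viability assay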
Description: SANGER: Inhibition of human HuH-7 cell growth in a cell viability assay.

IA-LM = assay: cells; details: Homo sapiens;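 further: cell viability assay measuring growth inhibition of human IA-LM cells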
Description: SANGER: Inhibition of human IA-LM cell growth in a cell viability assay.

IST-SL1 = assay: cells; details: Homo sapiens;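 further: growth inhibition of human IST-SL1 cells, read out with a cell viability assay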
Description: SANGER: Inhibition of human IST-SL1 cell growth in a cell viability assay.

JAR = assay: cells; details: Homo sapiens;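 further: growth inhibition of human JAR cells determined with a cell viability assay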
Description: SANGER: Inhibition of human JAR cell growth in a cell viability assay.

JVM-3 = assay: cells; details: Homo sapiens;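 further: growth inhibition of human JVM-3 cells, read out with a cell viability assay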
Description: SANGER: Inhibition of human JVM-3 cell growth in a cell viability assay.

KARPAS-45 = assay: cells; details: Homo sapiens;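 further: inhibition of cell line growth, read out through a viability assay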
Description: SANGER: Inhibition of human KARPAS-45 cell growth in a cell viability assay.

LCLC-103H cell line = assay: cells; details: Homo sapiens
Description: SANGER: Inhibition of human LCLC-103H cell growth in a cell viability assay.

LCLC-97TM1 = assay: cells; details: Homo sapiens;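 further: cell viability assay measuring growth inhibition of human LCLC-97TM1 cells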
Description: SANGER: Inhibition of human LCLC-97TM1 cell growth in a cell viability assay.

LU-139 = assay: cells; details: Homo sapiens
Description: SANGER: Inhibition of human LU-139 cell growth in a cell viability assay.

MDA-MB-453 = assay: cells; details: Homo sapiens
Description: SANGER: Inhibition of human MDA-MB-453 cell growth in a cell viability assay.

MN-60 = assay: cells; details: Homo sapiens;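 further: growth inhibition of the MN-60 cell line, determined with a cell viability assay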
Description: SANGER: Inhibition of human MN-60 cell growth in a cell viability assay.

MOLT-13 = assay: cells; details: Homo sapiens;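 further: IC50 for suppression of MOLT-13 cell growth, read out with a cell viability assay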
Description: SANGER: Inhibition of human MOLT-13 cell growth in a cell viability assay.

MPP-89 = assay: cells; details: Homo sapiens;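 further: growth inhibition of human MPP-89 cells, read out with a cell viability assay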
Description: SANGER: Inhibition of human MPP-89 cell growth in a cell viability assay.

NCI-H1666 = assay: cells; details: Homo sapiens;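 further: growth inhibition of the cell line, read out with a cell viability assay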
Description: SANGER: Inhibition of human NCI-H1666 cell growth in a cell viability assay.

NCI-H1693 = assay: cells; details: Homo sapiens;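 further: growth inhibition of the human cell line, read out with a cell viability assay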
Description: SANGER: Inhibition of human NCI-H1693 cell growth in a cell viability assay.

NCI-H23 = assay: cells; details: Homo sapiens;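 further: cell viability assay measuring growth inhibition of NCI-H23 cells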
Description: SANGER: Inhibition of human NCI-H23 cell growth in a cell viability assay.

NCI-H292 = assay: cells; details: Homo sapiens;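 further: growth inhibition of NCI-H292 cells, read out with a cell viability assay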
Description: SANGER: Inhibition of human NCI-H292 cell growth in a cell viability assay.

NCI-H520 = assay: cells; details: Homo sapiens;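 further: growth inhibition of NCI-H520 cells, measured by a cell viability assay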
Description: SANGER: Inhibition of human NCI-H520 cell growth in a cell viability assay.

SNU1 = assay: cells; details: Homo sapiens;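 further: growth inhibition of human NCI-SNU-1 cells, measured with a cell viability assay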
Description: SANGER: Inhibition of human NCI-SNU-1 cell growth in a cell viability assay.

NOMO-1 = assay: cells; details: Homo sapiens;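 further: growth inhibition of human NOMO-1 cells measured by a cell viability assay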
Description: SANGER: Inhibition of human NOMO-1 cell growth in a cell viability assay.

NY = assay: cells; details: Homo sapiens
Description: SANGER: Inhibition of human NY cell growth in a cell viability assay.

OC-314 = assay: cells; details: Homo sapiens
Description: SANGER: Inhibition of human OC-314 cell growth in a cell viability assay.

OCUB-M = assay: cells; details: Homo sapiens;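 further: growth inhibition of the cancer cell line, read out through a cell viability assay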
Description: SANGER: Inhibition of human OCUB-M cell growth in a cell viability assay.

OE33 = assay: cells; details: Homo sapiens;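 further: growth inhibition of human OE33 cells, measured by a cell viability assay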
Description: SANGER: Inhibition of human OE33 cell growth in a cell viability assay.

OS-RC-2 = assay: cells; details: Homo sapiens;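 further: growth inhibition of human OS-RC-2 cells, measured by a cell viability assay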
Description: SANGER: Inhibition of human OS-RC-2 cell growth in a cell viability assay.

OVCAR-8 = assay: cells; details: Homo sapiens;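 further: growth inhibition of human OVCAR-8 cells, read out by a cell viability assay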
Description: SANGER: Inhibition of human OVCAR-8 cell growth in a cell viability assay.

P30-OHK = assay: cells; details: Homo sapiens;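 further: growth inhibition of the P30-OHK cell line, read out with a cell viability assay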
Description: SANGER: Inhibition of human P30-OHK cell growth in a cell viability assay.

PSN1 = assay: cells; details: Homo sapiens;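 further: suppression of growth of human PSN1 cells, read out by a cell viability assay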
Description: SANGER: Inhibition of human PSN1 cell growth in a cell viability assay.

RS4-11 = assay: cells; details: Homo sapiens;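 further: growth inhibition of RS4-11 cells, read out by a cell viability assay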
Description: SANGER: Inhibition of human RS4-11 cell growth in a cell viability assay.

SBC-1 = assay: cells; details: Homo sapiens
Description: SANGER: Inhibition of human SBC-1 cell growth in a cell viability assay.

SK-LU-1 = assay: cells; details: Homo sapiens
Description: SANGER: Inhibition of human SK-LU-1 cell growth in a cell viability assay.

SK-MEL-2 = assay: cells; details: Homo sapiens
Description: SANGER: Inhibition of human SK-MEL-2 cell growth in a cell viability assay.

SK-N-AS = assay: cells; details: Homo sapiens
Description: SANGER: Inhibition of human SK-N-AS cell growth in a cell viability assay.

SK-N-FI = assay: cells; details: Homo sapiens
Description: SANGER: Inhibition of human SK-N-FI cell growth in a cell viability assay.

SNU-449 = assay: cells; details: Homo sapiens
Description: SANGER: Inhibition of human SNU-449 cell growth in a cell viability assay.

SW780 = assay: cells; details: Homo sapiens
Description: SANGER: Inhibition of human SW780 cell growth in a cell viability assay.

SW948 = assay: cells; details: Homo sapiens
Description: SANGER: Inhibition of human SW948 cell growth in a cell viability assay.

TE-1 = assay: cells; details: Homo sapiens
Description: SANGER: Inhibition of human TE-1 cell growth in a cell viability assay.

5637 = assay: cells; details: Homo sapiens
Description: SANGER: Inhibition of human 5637 cell growth in a cell viability assay.

8305C = assay: cells; details: Homo sapiens
Description: SANGER: Inhibition of human 8305C cell growth in a cell viability assay.

8505C = assay: cells; details: Homo sapiens
Description: SANGER: Inhibition of human 8505C cell growth in a cell viability assay.

A3-KAW = assay: cells; details: Homo sapiens
Description: SANGER: Inhibition of human A3-KAW cell growth in a cell viability assay.

A673 = assay: cells; details: Homo sapiens
Description: SANGER: Inhibition of human A673 cell growth in a cell viability assay.

ATN-1 = assay: cells; details: Homo sapiens
Description: SANGER: Inhibition of human ATN-1 cell growth in a cell viability assay.

BB49-HNC = assay: cells; details: Homo sapiens
Description: SANGER: Inhibition of human BB49-HNC cell growth in a cell viability assay.

C8166 = assay: cells; details: Homo sapiens
Description: SANGER: Inhibition of human C8166 cell growth in a cell viability assay.

CAL-39 = assay: cells; details: Homo sapiens
Description: SANGER: Inhibition of human CAL-39 cell growth in a cell viability assay.

CAL-51 = assay: cells; details: Homo sapiens
Description: SANGER: Inhibition of human CAL-51 cell growth in a cell viability assay.

CAL-62 = assay: cells; details: Homo sapiens
Description: SANGER: Inhibition of human CAL-62 cell growth in a cell viability assay.

TE-6 = assay: cells; details: Homo sapiens
Description: SANGER: Inhibition of human TE-6 cell growth in a cell viability assay.

TE-8 = assay: cells; details: Homo sapiens
Description: SANGER: Inhibition of human TE-8 cell growth in a cell viability assay.

UACC-893 = assay: cells; details: Homo sapiens
Description: SANGER: Inhibition of human UACC-893 cell growth in a cell viability assay.

VMRC-RCZ = assay: cells; details: Homo sapiens
Description: SANGER: Inhibition of human VMRC-RCZ cell growth in a cell viability assay.

YAPC = assay: cells; details: Homo sapiens
Description: SANGER: Inhibition of human YAPC cell growth in a cell viability assay.

COLO-320-HSR = assay: cells; details: Homo sapiens
Description: SANGER: Inhibition of human COLO-320-HSR cell growth in a cell viability assay.

`NC(=O)[C@@H](CCC(F)(F)F)N(Cc1ccc(-c2ncon2)cc1F)S(=O)(=O)c1ccc(Cl)cc1` gave an IC50 (IGR-1) of 1.05 µM, an IC50 (NCI-H810) of 0.426 µM and an IC50 (786-0) of 0.322 µM.
Work on `CNC(=O)c1ccccc1Sc1ccc2c(/C=C/c3ccccn3)n[nH]c2c1` [AXITINIB] yielded an IC50 (D-392MG) greater than 2 µM, an IC50 (D-566MG) of 1.41 µM and an IC50 (DMS-114) greater than 2 µM. The IC50 (EM-2) was 0.168 µM, the IC50 (ES7) was 1.11 µM and the IC50 (K5) was 0.421 µM. For the same compound, the IC50 (L-363) was greater than 2 µM, the IC50 (LB1047-RCC) was greater than 2 µM and the IC50 (MEG-01) was 0.424 µM. The IC50 (MHH-NB-11) was greater than 2 µM, the IC50 (NCI-H1581) was 1.39 µM and the IC50 (NCI-H446) was greater than 2 µM. It also gave an IC50 (A2780) of 1.01 µM, an IC50 (A-427) of 1.1 µM and an IC50 (AGS) of 1.11 µM. For the same compound, the IC50 (CHP-212) was greater than 2 µM.
`CC[C@@H]1C(=O)N(C)c2cnc(Nc3ccc(C(=O)NC4CCN(C)CC4)cc3OC)nc2N1C1CCCC1` [BI-2536] showed an IC50 (KU812 cell line) of 0.12 µM, an IC50 (LXF-289 cell line) of 0.0177 µM and an IC50 (A253 cell line) of 0.0882 µM. It also gave an IC50 (BC1 cell line) of 0.226 µM.
`O=C(CCCCCCC(=O)Nc1ccccc1)NO` [VORINOSTAT] showed an IC50 (COLO-824) of 7.73 µM, an IC50 (COR-L88) of 1.56 µM and an IC50 (CaR-1) of 2.86 µM. For the same compound, the IC50 (D-566MG) was 0.839 µM, the IC50 (DMS-273) was 2.15 µM and the IC50 (DSH1) was 2.16 µM. The IC50 (ES7) was 1.55 µM, the IC50 (EW-18) was 0.833 µM and the IC50 (GCT) was 2.18 µM. The IC50 (GI-1) was 2.31 µM, the IC50 (H-EMC-SS) was greater than 10 µM and the IC50 (HCC1569) was 4.88 µM. For the same compound, the IC50 (HEL) was 0.806 µM, the IC50 (HN) was 1.89 µM and the IC50 (HSC-2) was 2.13 µM. The IC50 (HT55) was 1.65 µM, the IC50 (HTC-C3) was 2.27 µM and the IC50 (Huh-7) was 2.31 µM. The IC50 (IA-LM) was 1.69 µM, the IC50 (IST-SL1) was 2.17 µM and the IC50 (JAR) was 2.32 µM. For the same compound, the IC50 (JVM-3) was 1.85 µM, the IC50 (KARPAS-45) was 0.174 µM and the IC50 (LCLC-103H cell line) was 2.9 µM. It also gave an IC50 (LCLC-97TM1) of 2.15 µM, an IC50 (LU-139) of 0.823 µM and an IC50 (MDA-MB-453) of 2.24 µM. The IC50 (MN-60) was 1.03 µM, the IC50 (MOLT-13) was 0.739 µM and the IC50 (MPP-89) was 7.6 µM. The IC50 (NCI-H1666) was 2.28 µM, the IC50 (NCI-H1693) was greater than 10 µM and the IC50 (NCI-H23) was 1.55 µM. For the same compound, the IC50 (NCI-H292) was 2.87 µM, the IC50 (NCI-H520) was greater than 10 µM and the IC50 (SNU1) was 1.02 µM. For the same compound, the IC50 (NOMO-1) was 2.19 µM, the IC50 (NY) was greater than 10 µM and the IC50 (OC-314) was 2.23 µM. The IC50 (OCUB-M) was 3.55 µM, the IC50 (OE33) was 4.88 µM and the IC50 (OS-RC-2) was 1.87 µM. For the same compound, the IC50 (OVCAR-8) was 1.54 µM, the IC50 (P30-OHK) was 0.836 µM and the IC50 (PSN1) was 2.29 µM. For the same compound, the IC50 (RS4-11) was 0.832 µM, the IC50 (SBC-1) was 0.794 µM and the IC50 (SK-LU-1) was greater than 10 µM. The IC50 (SK-MEL-2) was 0.809 µM, the IC50 (SK-N-AS) was 0.988 µM and the IC50 (SK-N-FI) was 4.94 µM. The IC50 (SNU-449) was 2.89 µM, the IC50 (SW780) was 4.86 µM and the IC50 (SW948) was 2.18 µM. For the same compound, the IC50 (TE-1) was 0.791 µM, the IC50 5637 was 2.32 µM and the IC50 (8305C) was 2.87 µM. The IC50 (8505C) was 1.02 µM, the IC50 (A3-KAW) was 0.401 µM and the IC50 (A673) was 2.26 µM. For the same compound, the IC50 (ATN-1) was 0.74 µM, the IC50 (BB49-HNC) was greater than 10 µM and the IC50 (C8166) was 2.21 µM. It also gave an IC50 (CAL-39) of 2.24 µM, an IC50 (CAL-51) of 2.17 µM and an IC50 (CAL-62) of 3.55 µM. For the same compound, the IC50 (TE-6) was 4.94 µM, the IC50 (TE-8) was 2.16 µM and the IC50 (UACC-893) was greater than 10 µM. It also gave an IC50 (VMRC-RCZ) greater than 10 µM, an IC50 (YAPC) greater than 10 µM and an IC50 (COLO-320-HSR) of 1.88 µM.
